Tests used:
[1] = biological target: Human immunodeficiency virus type 1 protease (Human immunodeficiency virus 1) (UniProt Q72874); assay: Compound was evaluated for in vitro inhibition of human immunodeficiency virus type 1 (HIV-1) Protease at 1 uM concentration
[2] = biological target: Human immunodeficiency virus type 1 protease (Human immunodeficiency virus 1, UniProt Q72874); assay: Compound was evaluated for in vitro inhibition of human immunodeficiency virus type 1 (HIV-1) Protease
[3] = Compound was evaluated for in vitro inhibition of human immunodeficiency virus type 1 (HIV-1) Protease

Compound	inhibition [1]	Ki [2]	IC50 [3]
CCC(C1=C(O)OC(CC)(c2cccc(NS(=O)(=O)c3cn(C)cn3)c2)CC1=O)c1cccc(NS(=O)(=O)c2cn(C)cn2)c1 (stereo unspecified)	–	4.7 nM	–
CCCC1(CCc2ccccc2)CC(=O)C(C(CC)c2cccc(NS(=O)(=O)c3cn(C)cn3)c2)=C(O)O1 (stereo unspecified)	–	1 nM	500 nM
CCC(C1=C(O)OC(CC)(c2cccc(NS(=O)(=O)c3cccc4cccnc34)c2)CC1=O)c1cccc(NS(=O)(=O)c2cccc3cccnc23)c1 (stereo unspecified)	35%	–	–

Further lines, with some results ahead:

inhibition [1]	Ki [2]	Compound	IC50 [3]
19%	–	CCC(C1=C(O)OC(CC)(c2cccc(NS(=O)(=O)c3ccc(C#N)cc3)c2)CC1=O)c1cccc(NS(=O)(=O)c2ccc(C#N)cc2)c1 (stereo unspecified)	–
–	0.1 nM	CCC(C1=C(O)OC(CC)(c2cccc(NS(=O)(=O)c3ccc(C#N)cn3)c2)CC1=O)c1cccc(NS(=O)(=O)c2ccc(C#N)cn2)c1 (stereo unspecified)	–
